In paper PMC12389006, “In Vitro and In Vivo Evaluation of Alectinib-Loaded Dendrimer Nanoparticles as a Drug Delivery System for Non-Small Cell Lung Carcinoma” (Pharmaceutics, 2025):
Where two headings read alike, the source gives them in different places.

Tests used:
[1] = tested on: resistance-induced overexpressed TGF-α HGF cells; parameters: method as in PMID 31857951; details: cited from earlier work
[2] = Pharmacokinetic study in rats, LC-MS/MS of plasma; assay type: in vivo, Wistar rats; details: rat, 20 mg/kg oral; for AUC0-t: 20 mg/kg
Method: Quantification and identification of Alectinib were performed using liquid chromatography coupled with mass spectrometry (LC/MS), employing rosuvastatin as the internal standard (IS). […] Detection was carried out with an API-3000 triple quadrupole mass spectrometer (LCMS-2010A, Shimadzu, Japan) featuring an electrospray ionization (ESI) source operated in positive ion mode. […] Detection was achieved using multiple reaction monitoring (MRM) for specific m/z transitions. […] Prior to the experiment, the animals were fasted overnight with free access to water and were marked on the tail for individual identification. The rats were randomly divided into two groups. […] Blood samples were collected from the tail after warming for 30 s using a hot pad to facilitate sampling. […] Sample preparation was carried out using the liquid–liquid extraction (LLE) technique. Frozen plasma samples were thawed at room temperature, vortexed to ensure uniform mixing, and combined with 500 µL acetonitrile (ACN) as diluent, 300 µL plasma, and 50 µL rosuvastatin as the internal standard. The mixture was vortexed for 2 min, centrifuged at 4000 rpm for 15 min, and 200 µL of the supernatant was transferred into LC-MS insert vials. Subsequently, 20 µL of the processed sample was analyzed using LC-MS/MS for quantification and pharmacokinetic evaluation.

[3] = pH 1.2 and 2.5; cited from earlier work
[4] = tested on: A549 cells; assay: Scratch-wound assay for cell migration; assay type: cell-based, human; details: A549, 72 h
Method: After the cells reached full confluence and formed a uniform monolayer, a scratch approximately 1 mm wide was created across the cell layer using a sterile 200 μL micropipette tip. The wells were then gently washed with phosphate-buffered saline (PBS) to remove cellular debris. […] To evaluate wound closure, images of the scratch area were captured at the start of the experiment (0 h) and after 72 h of treatment. Image analysis was performed using ImageJ® software (version 1.4.3.67, Symmetry Software) to measure the wound area and assess cell migration quantitatively

[5] = tested on: A549 cells; parameters: method as in Ata et al.; details: ref Ata et al.; cited from earlier work
[6] = tested on: nB1 (neuroblastoma); details: cited from earlier work
[7] = tested on: H460 large lung cancer cells; assay type: in vivo; details: H460 xenograft mice, 20 mg/kg
Method: This study involved 24 male BALC mice, aged 5 weeks and weighing 20 ± 2 g, housed under controlled environmental conditions (temperature: 25.2 °C, humidity: 60 ± 5%, 12 h light–dark cycle) with ad libitum access to standard rodent chow and autoclaved water. […] Human lung large-cell carcinoma (H460) cells were cultured in RPMI 1640 medium, prepared through trypsinization and centrifugation, and underwent viability testing with Trypan blue exclusion, then were suspended in ECM Matrigel®. After 21 days of immunosuppression with 5 mg/kg dexamethasone administered intraperitoneally each mouse was subcutaneously injected in the right flank with 2.5 × 10^6 viable H460 cells. Tumor growth was monitored for 14 days using caliper measurements.
To establish an immunosuppressed xenograft model, dexamethasone (5 mg/kg) was administered to all mice for 21 days to suppress their immune response (Figure S8). Following immunosuppression, 2.5 × 10^6 H460 large lung cancer cells were subcutaneously injected into the mice, and tumor growth was monitored every day.

[8] = tested on: A549 lung cancer cell line; assay: MTT cytotoxicity assay; assay type: cell-based; details: Homo sapiens, A549, 72 h
Method: The A549 cell line, composed of human alveolar basal epithelial adenocarcinoma cells, was used for the in vitro evaluation. Cells were obtained from ATCC through the Faculty of Pharmacy […] University. To maintain the A549 lung cancer cell line, Roswell Park Memorial Institute (RPMI) was employed. The medium was supplemented with 2 mL of L-glutamine, 50 mL of fetal bovine serum (FBS), and 5 mL of penicillin-streptomycin. The frozen A549 cell vials, stored in liquid nitrogen at approximately -196 °C, were quickly thawed at 37 °C in a water bath. The contents were then diluted with 10 mL of pre-warmed media and then centrifuged at 1500 rpm for 10 min. After discarding the supernatant, the tube was gently agitated to disperse the cells, and fresh medium (15 mL) was added. […] Their confluency level was maintained within the ideal range of 80-90%. To assess cell viability, a 1:1 mixture of 50 μL of Trypan blue stain and 50 μL of cell solution was prepared in an Eppendorf tube. Then, 5 × 10^3 cells were inoculated into individual wells of 96-well microplates using 100 μL of medium. […] Negative control wells received 0.1% DMSO, while blank wells were filled with RPMI medium without cells. […] The absorbance of the formazan solution in each well was promptly quantified at 590 nm utilizing a 96-well plate reader manufactured by Biotech, and the IC50 values were calculated according to Equation (2).

[9] = tested on: NCI-H2228 (lung cancer); details: cited from earlier work
[10] = parameters: method as in PMID 36015320; details: cited from earlier work
[11] = parameters: method as in PMID 36015320; details: cited from earlier work; remark: listed apart in the source
[12] = tested on: KARPAS 299; details: cited from earlier work
[13] = In vitro drug release, dialysis method in PBS; assay type: physicochemical; details: pH 6.8 PBS, 1.5% SLS, 37 °C
Method: In vitro drug release studies were performed using the dialysis method. A drug release study was conducted in vitro to measure the amount of drug released from the complex. […] The dissolution study was conducted using the USP II apparatus (paddle) under the following conditions: a stirring speed of 100 rpm, a temperature of 37.0 ± 0.5 °C, and volume of release media of 200 mL. The NP samples were placed in a plastic tube sealed with a dialysis membrane with a molecular weight cut-off (MWCO) of 14,000 Da, which was previously soaked in either buffer for 24 h. […] At predetermined time intervals, 1 mL aliquots were withdrawn and promptly replaced with fresh media. The collected samples were filtered by a 0.22 µm filter membrane and were subsequently injected into the HPLC system at a wavelength of 340 nm.

- AUC(0-inf) ([2]; male, Wistar, plasma): 11800 ng·h/mL
- half-life ([2]; male, Wistar, plasma): 15.4 ± 1.6 h
- k el ([2]; male, Wistar, plasma): 1.25e-05 s⁻¹
- AUC0-t ([2]; male, Wistar, plasma, po, read-out: AUC0-t): 9840 ng·h/mL
- C-max [2]: 313.83 ± 150.83 ng/mL
- T-max [2]: 9.33 ± 1.1 h
- absorption rate constant (Ka) ([2]; assumption of linear absorption): 0.43 h⁻¹
- AUC0-t ([2]; listed as Free Alectinib): 9842.03 ± 3986 ng·h/mL
- Alectinib released over 48 h [13]: 11.1% ± 0.11
SMILES: CCc1cc2c(cc1N1CCC(N3CCOCC3)CC1)C(C)(C)c1[nH]c3cc(C#N)ccc3c1C2=O.Cl [Alectinib, 9-ethyl-6,6-dimethyl-8-[4-(morpholine-4-yl)piperidin-1-yl]-11-oxo-6,11-dihydro-5H-benzo[b]carbazole-3-carbonitrile hydrochloride]
- IC50 [1]: 38.2 nM
- stability at low pH [3]: degradation of Alectinib at low pH
- scratch assay outcome in words [4]: completely eradicated the cells
- IC50 [5]: 9.63 µg/mL
- IC50 [6]: 4.5 nM
- tumor outcome in words after 17 days of treatment [7]: minimal amount of residual tumor tissue
- tumor regression / reduction after 17 days of treatment [7]: 75%
- IC50 [8]: 4190 nM
- IC50 [9]: 53 nM
- absolute bioavailability [10]: 37%
- permeability [11]: 250 ×10⁻⁶ cm/s
- IC50 [12]: 3 nM
